Counter-ions that a name gives are not always drawn.
Experiments:
[1] = molecular target: Nicotinic Acetylcholine α3β4 (Homo sapiens (Human), UniProt P30926+P32297); experiment: Receptor binding assay panel: Nicotinic Acetylcholine α3β4
Procedure: (§1) Radioligand binding to a panel of receptors was carried out by Eurofins on crude membrane preparations according to published procedures and by using appropriate reference standard (Eurofin, Taiwan, compound code CVie216-3 (1226840), study #TW04-0004235, quote #TW04-0004235-Q04, for Cvie Therapeutics Limited, Taiwan). […] was tested at the concentration of 10 μM.

Muscarinic M2 = Muscarinic M2 (Homo sapiens (Human), UniProt P08172); experiment: Receptor binding assay panel: Muscarinic M2
Procedure: as §1

Monoamine Oxidase MAO-A = Monoamine Oxidase MAO-A (Homo sapiens (Human), UniProt P21397); experiment: Receptor binding assay panel: Monoamine Oxidase MAO-A; type: biochemical
Sodium Channel, Site 2 = experiment: Receptor binding assay panel: Sodium Channel, Site 2; design: species or system rat; settings: 10 μM
Phorbol Ester = experiment: Receptor binding assay panel: Phorbol Ester; design: species or system mouse; settings: 10 μM
Glucocorticoid = Glucocorticoid (Homo sapiens (Human), UniProt P04150); experiment: Receptor binding assay panel: Glucocorticoid
Dopamine D2s = Dopamine D2s (Homo sapiens (Human), UniProt P14416); experiment: Receptor binding assay panel: Dopamine D2s
GABAA, Muscimol, Central = experiment: Receptor binding assay panel: GABAA, Muscimol, Central; design: species or system rat; settings: 10 μM
Procedure: as §1

[2] = molecular target: Protein Tyrosine Kinase, Src (Homo sapiens (Human), UniProt P12931); experiment: Receptor binding assay panel: Protein Tyrosine Kinase, Src; type: biochemical
Angiotensin AT2 = Angiotensin AT2 (Homo sapiens (Human), UniProt P50052); experiment: Receptor binding assay panel: Angiotensin AT2
Monoamine Oxidase MAO-B = Monoamine Oxidase MAO-B (Homo sapiens (Human), UniProt P27338); experiment: Receptor binding assay panel: Monoamine Oxidase MAO-B; type: biochemical
Ryanodine RyR3 = Ryanodine RyR3 (Rattus norvegicus, UniProt A0ABK0LPH6); experiment: Receptor binding assay panel: Ryanodine RyR3
Muscarinic M3 = Muscarinic M3 (Homo sapiens (Human), UniProt P20309); experiment: Receptor binding assay panel: Muscarinic M3
Procedure: as §1

[3] = molecular target: Transporter, Norepinephrine (NET) (Homo sapiens (Human), UniProt P23975); experiment: Receptor binding assay panel: Transporter, Norepinephrine (NET)
Procedure: as §1

Estrogen ERβ = Estrogen ERβ (Homo sapiens (Human), UniProt Q92731); experiment: Receptor binding assay panel: Estrogen ERβ
Angiotensin AT1 = Angiotensin AT1 (Homo sapiens (Human), UniProt P30556); experiment: Receptor binding assay panel: Angiotensin AT1
Muscarinic M5 = Muscarinic M5 (Homo sapiens (Human), UniProt P08912); experiment: Receptor binding assay panel: Muscarinic M5
Procedure: as §1

Adrenergic β2 = Adrenergic β2 (Homo sapiens (Human), UniProt P07550); experiment: Receptor binding assay panel: Adrenergic β2
[4] = molecular target: Nitric Oxide Synthase, Endothelial (eNOS) (Bos taurus (Bovine), UniProt P29473); experiment: Receptor binding assay panel: Nitric Oxide Synthase, Endothelial (eNOS); type: biochemical
[5] = tested on: ATPase, Ca2+, skeletal muscle; experiment: Receptor binding assay panel: ATPase, Ca2+, skeletal muscle; type: biochemical, pig; settings: 10 μM
Procedure: as §1

HMG-CoA Reductase = HMG-CoA Reductase (Homo sapiens (Human), UniProt P04035); experiment: Receptor binding assay panel: HMG-CoA Reductase; type: biochemical
Peptidase, Renin = Peptidase, Renin (Homo sapiens (Human), UniProt P00797); experiment: Receptor binding assay panel: Peptidase, Renin; type: biochemical
Sigma σ2 = Sigma σ2 (Homo sapiens (Human), UniProt Q5BJF2); experiment: Receptor binding assay panel: Sigma σ2
Dopamine D1 = Dopamine D1 (Homo sapiens (Human), UniProt P21728); experiment: Receptor binding assay panel: Dopamine D1
Adrenergic β1 = Adrenergic β1 (Homo sapiens (Human), UniProt P08588); experiment: Receptor binding assay panel: Adrenergic β1
Potassium Channel (KATP) = Potassium Channel (KATP) (Cricetus cricetus (Black-bellied hamster), UniProt Q09427); experiment: Receptor binding assay panel: Potassium Channel (KATP)
Procedure: as §1

Adenosine A1 = Adenosine A1 (Homo sapiens (Human), UniProt P30542); experiment: Receptor binding assay panel: Adenosine A1
Androgen (Testosterone) = Androgen (Testosterone) (Homo sapiens (Human), UniProt P10275); experiment: Receptor binding assay panel: Androgen (Testosterone)
Procedure: as §1

Dopamine D3 = Dopamine D3 (Homo sapiens (Human), UniProt P35462); experiment: Receptor binding assay panel: Dopamine D3
panel of receptors = experiment: Radioligand binding to a panel of receptors (Eurofins); settings: 10 μM
[6] = tested on: Serotonin (5-Hydroxytryptamine) 5-HT1, non selective; experiment: Receptor binding assay panel: Serotonin (5-Hydroxytryptamine) 5-HT1, non selective; design: species or system rat; settings: 10 μM
Adrenergic α2A = Adrenergic α2A (Homo sapiens (Human), UniProt P08913); experiment: Receptor binding assay panel: Adrenergic α2A
Procedure: as §1

[7] = molecular target: Peptidase, Angiotensin Converting Enzyme (Oryctolagus cuniculus (Rabbit), UniProt P12822); experiment: Receptor binding assay panel: Peptidase, Angiotensin Converting Enzyme; type: biochemical
[8] = tested on: Glutamate, NMDA, Phencyclidine; experiment: Receptor binding assay panel: Glutamate, NMDA, Phencyclidine; design: species or system rat; settings: 10 μM
Procedure: as §1

Glucocorticoid, sequence (P04150 whole entry): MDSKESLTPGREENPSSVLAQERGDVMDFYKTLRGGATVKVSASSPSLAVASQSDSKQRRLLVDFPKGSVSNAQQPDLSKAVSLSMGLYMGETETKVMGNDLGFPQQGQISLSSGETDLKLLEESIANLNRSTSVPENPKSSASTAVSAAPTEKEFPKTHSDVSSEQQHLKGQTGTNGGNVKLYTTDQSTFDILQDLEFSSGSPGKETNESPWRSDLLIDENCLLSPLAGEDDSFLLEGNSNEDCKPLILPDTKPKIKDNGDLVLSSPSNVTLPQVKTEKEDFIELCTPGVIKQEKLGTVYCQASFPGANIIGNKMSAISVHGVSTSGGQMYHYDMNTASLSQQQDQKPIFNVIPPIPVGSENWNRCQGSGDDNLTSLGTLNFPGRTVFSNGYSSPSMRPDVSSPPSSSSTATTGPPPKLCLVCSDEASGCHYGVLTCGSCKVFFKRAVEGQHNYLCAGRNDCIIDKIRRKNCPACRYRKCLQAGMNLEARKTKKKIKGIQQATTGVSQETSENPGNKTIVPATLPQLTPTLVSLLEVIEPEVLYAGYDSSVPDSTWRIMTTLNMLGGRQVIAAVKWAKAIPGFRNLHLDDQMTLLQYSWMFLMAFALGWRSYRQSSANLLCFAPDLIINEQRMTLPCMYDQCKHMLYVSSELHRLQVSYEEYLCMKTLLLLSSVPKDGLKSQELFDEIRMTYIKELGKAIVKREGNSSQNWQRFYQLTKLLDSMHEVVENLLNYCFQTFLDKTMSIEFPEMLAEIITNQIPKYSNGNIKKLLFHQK
Adrenergic β1, sequence (P08588 whole entry): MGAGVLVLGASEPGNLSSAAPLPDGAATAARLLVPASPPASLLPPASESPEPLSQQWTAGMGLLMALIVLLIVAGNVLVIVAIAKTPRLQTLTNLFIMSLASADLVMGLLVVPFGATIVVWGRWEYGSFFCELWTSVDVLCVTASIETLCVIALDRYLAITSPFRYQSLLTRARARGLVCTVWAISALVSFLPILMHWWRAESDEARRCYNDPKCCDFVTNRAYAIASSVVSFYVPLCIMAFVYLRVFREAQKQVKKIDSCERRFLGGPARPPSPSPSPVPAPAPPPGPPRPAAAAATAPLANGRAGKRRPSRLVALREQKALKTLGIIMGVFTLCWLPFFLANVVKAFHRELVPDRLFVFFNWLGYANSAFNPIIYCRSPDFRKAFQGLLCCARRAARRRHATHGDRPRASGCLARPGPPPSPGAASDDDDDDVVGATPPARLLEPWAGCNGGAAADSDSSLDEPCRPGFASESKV
Nicotinic Acetylcholine α3β4, sequence (P32297 32-505 limits assumed): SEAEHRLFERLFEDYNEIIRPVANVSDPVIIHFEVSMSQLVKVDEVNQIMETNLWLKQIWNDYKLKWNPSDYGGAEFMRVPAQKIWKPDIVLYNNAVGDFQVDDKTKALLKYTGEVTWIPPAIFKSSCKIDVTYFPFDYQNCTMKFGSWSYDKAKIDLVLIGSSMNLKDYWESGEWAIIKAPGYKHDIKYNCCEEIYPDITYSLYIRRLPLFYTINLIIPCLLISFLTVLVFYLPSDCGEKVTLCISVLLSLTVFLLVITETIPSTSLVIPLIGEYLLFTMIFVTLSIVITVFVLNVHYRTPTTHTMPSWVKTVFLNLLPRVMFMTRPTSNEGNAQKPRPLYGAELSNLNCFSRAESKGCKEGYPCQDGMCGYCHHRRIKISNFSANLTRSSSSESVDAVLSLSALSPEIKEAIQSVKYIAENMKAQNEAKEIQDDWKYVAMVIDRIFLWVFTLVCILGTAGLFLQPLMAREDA
Nicotinic Acetylcholine α3β4, sequence (P30926 22-498 limits assumed): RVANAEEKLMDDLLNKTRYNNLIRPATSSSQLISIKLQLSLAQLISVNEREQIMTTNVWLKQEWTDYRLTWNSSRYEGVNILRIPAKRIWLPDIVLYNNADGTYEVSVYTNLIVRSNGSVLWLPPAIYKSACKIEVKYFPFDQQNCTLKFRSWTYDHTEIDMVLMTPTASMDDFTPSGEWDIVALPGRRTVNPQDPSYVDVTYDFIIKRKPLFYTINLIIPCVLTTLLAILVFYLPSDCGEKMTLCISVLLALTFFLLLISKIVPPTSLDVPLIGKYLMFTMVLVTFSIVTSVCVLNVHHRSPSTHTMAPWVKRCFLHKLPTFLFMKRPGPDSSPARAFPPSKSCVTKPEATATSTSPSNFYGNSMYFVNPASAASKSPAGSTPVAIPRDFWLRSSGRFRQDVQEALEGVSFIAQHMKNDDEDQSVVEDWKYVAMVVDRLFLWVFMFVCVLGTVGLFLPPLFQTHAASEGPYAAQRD
Potassium Channel (KATP), sequence (Q09427 whole entry, looked up): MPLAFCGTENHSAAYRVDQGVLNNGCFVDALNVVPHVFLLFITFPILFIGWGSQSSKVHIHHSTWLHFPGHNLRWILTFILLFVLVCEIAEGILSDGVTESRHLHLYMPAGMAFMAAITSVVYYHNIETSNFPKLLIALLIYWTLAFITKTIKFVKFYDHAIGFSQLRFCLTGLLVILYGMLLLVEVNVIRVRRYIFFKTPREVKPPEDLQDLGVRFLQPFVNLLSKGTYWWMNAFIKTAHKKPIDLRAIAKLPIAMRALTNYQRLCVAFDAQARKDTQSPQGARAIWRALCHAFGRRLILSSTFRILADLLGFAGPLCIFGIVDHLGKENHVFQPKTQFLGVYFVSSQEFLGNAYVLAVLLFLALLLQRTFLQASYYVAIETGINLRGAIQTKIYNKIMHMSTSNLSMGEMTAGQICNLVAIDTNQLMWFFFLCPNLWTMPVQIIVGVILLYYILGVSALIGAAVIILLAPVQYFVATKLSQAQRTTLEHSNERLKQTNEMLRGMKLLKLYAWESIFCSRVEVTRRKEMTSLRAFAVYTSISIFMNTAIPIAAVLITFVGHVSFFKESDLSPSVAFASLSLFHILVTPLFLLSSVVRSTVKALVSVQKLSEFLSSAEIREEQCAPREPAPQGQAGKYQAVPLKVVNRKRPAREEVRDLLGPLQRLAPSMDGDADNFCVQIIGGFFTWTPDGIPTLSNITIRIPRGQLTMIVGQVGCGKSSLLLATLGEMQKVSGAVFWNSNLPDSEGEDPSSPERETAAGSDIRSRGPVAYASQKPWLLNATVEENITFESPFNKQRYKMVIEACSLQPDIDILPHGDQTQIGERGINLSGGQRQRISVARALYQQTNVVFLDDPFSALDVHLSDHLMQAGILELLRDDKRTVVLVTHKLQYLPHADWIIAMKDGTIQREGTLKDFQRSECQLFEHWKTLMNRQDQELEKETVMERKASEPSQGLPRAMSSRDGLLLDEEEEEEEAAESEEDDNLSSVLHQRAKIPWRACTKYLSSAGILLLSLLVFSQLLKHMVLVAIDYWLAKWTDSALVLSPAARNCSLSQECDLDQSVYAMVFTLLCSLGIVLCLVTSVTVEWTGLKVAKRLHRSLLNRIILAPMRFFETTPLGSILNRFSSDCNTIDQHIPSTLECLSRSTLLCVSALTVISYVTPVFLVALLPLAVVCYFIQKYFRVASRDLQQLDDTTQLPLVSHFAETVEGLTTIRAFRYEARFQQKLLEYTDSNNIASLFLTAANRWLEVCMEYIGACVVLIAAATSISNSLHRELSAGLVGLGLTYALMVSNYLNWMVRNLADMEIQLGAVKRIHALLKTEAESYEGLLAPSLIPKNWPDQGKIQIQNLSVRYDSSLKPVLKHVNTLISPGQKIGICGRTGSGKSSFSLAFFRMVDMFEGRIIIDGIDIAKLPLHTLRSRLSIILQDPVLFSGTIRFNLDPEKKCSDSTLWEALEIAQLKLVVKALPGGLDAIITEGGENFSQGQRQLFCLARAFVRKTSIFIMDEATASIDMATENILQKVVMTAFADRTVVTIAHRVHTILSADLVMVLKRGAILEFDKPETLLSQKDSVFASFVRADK
Muscarinic M2, sequence (P08172 whole entry): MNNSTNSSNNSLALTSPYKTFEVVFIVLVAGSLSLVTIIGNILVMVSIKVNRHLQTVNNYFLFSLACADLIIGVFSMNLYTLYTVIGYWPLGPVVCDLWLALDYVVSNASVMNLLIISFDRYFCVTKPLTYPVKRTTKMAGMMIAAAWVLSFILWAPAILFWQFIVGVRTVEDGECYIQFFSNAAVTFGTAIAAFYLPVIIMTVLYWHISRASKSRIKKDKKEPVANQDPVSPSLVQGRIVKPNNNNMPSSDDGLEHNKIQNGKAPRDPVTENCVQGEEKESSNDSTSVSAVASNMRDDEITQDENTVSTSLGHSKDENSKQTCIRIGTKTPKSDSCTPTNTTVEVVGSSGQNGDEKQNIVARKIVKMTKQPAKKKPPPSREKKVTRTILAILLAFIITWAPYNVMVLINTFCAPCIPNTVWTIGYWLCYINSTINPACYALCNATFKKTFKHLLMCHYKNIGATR
Adrenergic α2A, sequence (P08913 whole entry): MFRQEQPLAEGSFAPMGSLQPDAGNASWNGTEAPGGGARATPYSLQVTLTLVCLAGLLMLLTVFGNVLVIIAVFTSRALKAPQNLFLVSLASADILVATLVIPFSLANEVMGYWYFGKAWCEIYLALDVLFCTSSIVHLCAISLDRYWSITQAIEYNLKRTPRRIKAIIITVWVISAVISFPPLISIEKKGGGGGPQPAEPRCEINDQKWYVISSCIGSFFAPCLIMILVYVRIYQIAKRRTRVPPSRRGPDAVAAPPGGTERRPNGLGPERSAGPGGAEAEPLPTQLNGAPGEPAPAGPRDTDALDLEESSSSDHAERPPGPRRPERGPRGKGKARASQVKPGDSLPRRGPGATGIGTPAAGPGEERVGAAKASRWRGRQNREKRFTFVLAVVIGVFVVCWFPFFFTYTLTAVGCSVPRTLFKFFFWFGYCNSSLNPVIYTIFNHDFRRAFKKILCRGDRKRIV
Adenosine A1, sequence (P30542 whole entry): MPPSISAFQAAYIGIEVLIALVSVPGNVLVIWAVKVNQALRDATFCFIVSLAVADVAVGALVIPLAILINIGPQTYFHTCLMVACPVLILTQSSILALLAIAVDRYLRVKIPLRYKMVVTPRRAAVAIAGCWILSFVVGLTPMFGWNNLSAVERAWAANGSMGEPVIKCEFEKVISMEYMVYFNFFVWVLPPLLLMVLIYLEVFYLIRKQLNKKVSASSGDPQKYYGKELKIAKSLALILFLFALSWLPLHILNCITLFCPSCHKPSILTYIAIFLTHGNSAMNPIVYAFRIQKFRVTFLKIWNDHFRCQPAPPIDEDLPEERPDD

C[C@]12CC[C@H](CC(=O)O)CC1C(O)CC1C2CC[C@]2(C)C(=O)CCC12 (stereo in doubt) [CVie216-salt, 2-(6beta-hydroxy-17-oxoandrostane-3-yl) acetic acid]
inhibition at 10 µM [1]: -3%
inhibition at 10 µM (Muscarinic M2): -20%
inhibition at 10 µM (Monoamine Oxidase MAO-A): 1%
% inhib (Sodium Channel, Site 2): −5%
% inhib (Phorbol Ester): −7%
inhibition at 10 µM (Glucocorticoid): -9%
inhibition at 10 µM (Dopamine D2s): -4%
% inhib (GABAA, Muscimol, Central): 2%
inhibition at 10 µM [2]: 2%
inhibition at 10 µM (Angiotensin AT2): -6%
inhibition at 10 µM (Monoamine Oxidase MAO-B): -2%
inhibition at 10 µM (Ryanodine RyR3): -10%
inhibition at 10 µM (Muscarinic M3): -6%
inhibition at 10 µM [3]: -4%
inhibition at 10 µM (Estrogen ERβ): -6%
inhibition at 10 µM (Angiotensin AT1): 1%
inhibition at 10 µM (Muscarinic M5): 0%
inhibition at 10 µM (Adrenergic β2): -6%
inhibition at 10 µM [4]: 2%
% inhib [5]: −1%
inhibition at 10 µM (HMG-CoA Reductase): -4%
inhibition at 10 µM (Peptidase, Renin): 7%
inhibition at 10 µM (Sigma σ2): 4%
inhibition at 10 µM (Dopamine D1): 13%
inhibition at 10 µM (Adrenergic β1): 2%
inhibition at 10 µM (Potassium Channel (KATP)): -11%
inhibition at 10 µM (Adenosine A1): -1%
inhibition at 10 µM (Androgen (Testosterone)): 6%
inhibition at 10 µM (Dopamine D3): 0%
interaction on a panel of receptors (in words) (panel of receptors): No significant interaction
% inhib [6]: 12%
inhibition at 10 µM (Adrenergic α2A): -2%
inhibition at 10 µM [7]: 7%
% inhib [8]: −7%

From patent publication US12503484B2, “Androstane derivatives with activity as pure or predominantly pure stimulators of SERCA2a for the treatment of heart failure” (Seismic Pharmaceuticals, priority 2019, dated 2025)
